Results: PMC11740144 (ACS Omega, 2024)

How the values were obtained:
RBD:ACE2 interaction = RBD:ACE2 interaction (Severe acute respiratory syndrome coronavirus 2, UniProt P0DTC2); experiment: RBD:ACE2 interaction inhibition, NanoBiT kit (Promega); parameters: species or system delta SARS-CoV-2 RBD / human ACE2; conditions: RBD from delta SARS-CoV-2, triplicate; read-out: IC50 of RBD:ACE2 binding inhibition
SARS-CoV-2 [1] = assay type: cell-based
Furin = Furin (Homo sapiens, UniProt P09958); experiment: Inhibition of human protease Furin (data not shown); assay type: biochemical
Furin, sequence (P09958 108-794): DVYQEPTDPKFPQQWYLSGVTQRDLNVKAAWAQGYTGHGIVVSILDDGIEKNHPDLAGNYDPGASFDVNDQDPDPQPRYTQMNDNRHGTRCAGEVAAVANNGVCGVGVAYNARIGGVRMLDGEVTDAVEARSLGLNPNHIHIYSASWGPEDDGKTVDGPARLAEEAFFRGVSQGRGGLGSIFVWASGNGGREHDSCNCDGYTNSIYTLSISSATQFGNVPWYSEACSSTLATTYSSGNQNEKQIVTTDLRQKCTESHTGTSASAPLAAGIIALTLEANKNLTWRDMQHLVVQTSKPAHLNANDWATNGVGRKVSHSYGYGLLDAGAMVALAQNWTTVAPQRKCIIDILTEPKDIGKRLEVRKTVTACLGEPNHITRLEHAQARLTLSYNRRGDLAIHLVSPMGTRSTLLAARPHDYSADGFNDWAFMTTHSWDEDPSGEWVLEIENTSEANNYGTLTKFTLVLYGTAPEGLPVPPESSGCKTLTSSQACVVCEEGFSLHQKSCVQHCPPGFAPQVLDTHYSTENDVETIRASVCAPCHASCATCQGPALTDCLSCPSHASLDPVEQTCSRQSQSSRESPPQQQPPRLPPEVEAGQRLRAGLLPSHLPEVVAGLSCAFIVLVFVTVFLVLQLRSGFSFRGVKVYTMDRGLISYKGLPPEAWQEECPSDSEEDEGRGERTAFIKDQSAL

[2] = system: SARS-CoV-2 delta virus (NTU92); experiment: Plaque reduction assay, entry treatment (compound preincubated with the virus); assay type: cell-based; conditions: Severe acute respiratory syndrome coronavirus 2, Vero C1008, VeroE6 cells, triplicate, read-out: EC50 against delta SARS-CoV-2 infecting VeroE6 cells
TMPRSS2 = TMPRSS2 (Homo sapiens, UniProt O15393); experiment: Inhibition of human protease TMPRSS2 (data not shown); assay type: biochemical
TMPRSS2, sequence (O15393 whole entry): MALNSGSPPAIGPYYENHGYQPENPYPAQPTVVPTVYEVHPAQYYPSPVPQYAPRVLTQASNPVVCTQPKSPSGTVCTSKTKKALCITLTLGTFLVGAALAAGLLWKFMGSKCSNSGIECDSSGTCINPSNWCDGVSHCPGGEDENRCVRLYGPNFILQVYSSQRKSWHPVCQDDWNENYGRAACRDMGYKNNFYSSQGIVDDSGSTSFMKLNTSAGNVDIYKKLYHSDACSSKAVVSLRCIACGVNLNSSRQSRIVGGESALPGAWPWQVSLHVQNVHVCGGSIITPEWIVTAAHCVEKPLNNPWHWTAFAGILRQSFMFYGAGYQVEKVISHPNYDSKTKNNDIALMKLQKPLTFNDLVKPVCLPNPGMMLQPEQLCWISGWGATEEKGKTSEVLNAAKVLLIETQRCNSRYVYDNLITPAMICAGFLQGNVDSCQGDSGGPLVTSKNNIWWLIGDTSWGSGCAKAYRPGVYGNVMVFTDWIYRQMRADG

[3] = Cytotoxicity by acid phosphatase assay; assay type: cell-based; conditions: African green monkey; VeroE6 cells, 3 days incubation
Experimental: Cytotoxicity of the inhibitors was determined by using acid phosphatase assay. Briefly, VeroE6 cells were seeded onto a 96-well culture plate at a concentration of 2 × 10^4 cells per well. Next day, the medium was removed, and each well was washed once with PBS before adding DMEM containing 2% FBS and different concentrations of an inhibitor. Next, DMEM containing 2 μg/mL TPCK-trypsin was added. After 1 h of incubation at 37 °C, the medium was removed, and cells were washed by PBS. Then, DMEM containing 2% FBS and different concentrations of an antiviral was added. After 3 days of incubation at 37 °C, the medium was removed, and each well was washed once with PBS. Next, buffer containing 0.1 M sodium acetate (pH = 5.0), 0.1% Triton X-100, and 5 mM p-nitrophenyl phosphate was added. After the mixture was incubated at 37 °C for 2 h, 1 N NaOH was added to stop the reaction. The absorbance was then determined by an ELISA reader (VERSAmax, Molecular Devices, Sunnyvale, CA) at a wavelength of 405 nm. The percentage of cytotoxicity was calculated using the following formula: cytotoxicity % = [1 – (At/As) × 100]%, where At and As refer to the absorbance of a tested substance and solvent control, respectively. The 50% cytotoxicity concentration (CC50) was defined as the concentration reducing 50% of cell viability. […]

Cathepsin L = Cathepsin L (Homo sapiens, UniProt P07711); experiment: Inhibition of human protease Cathepsin L (data not shown); assay type: biochemical
Cathepsin L, sequence (P07711 114-333): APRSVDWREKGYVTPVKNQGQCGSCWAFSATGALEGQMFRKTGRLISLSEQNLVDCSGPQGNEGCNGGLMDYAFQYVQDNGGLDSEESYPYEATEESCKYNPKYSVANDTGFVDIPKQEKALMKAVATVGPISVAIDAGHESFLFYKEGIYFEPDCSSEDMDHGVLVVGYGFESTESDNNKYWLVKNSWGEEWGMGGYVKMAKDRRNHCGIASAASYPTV

SARS-CoV-2 [4] = conditions: VeroE6 host cells; read-out: EC50 of inhibiting SARS-CoV-2 entry into VeroE6 host cells; cited from earlier work
VeroE6 host cells = conditions: cited from earlier work

Molecule	IC50 (RBD:ACE2 interaction) [µM]	anti-SARS-CoV-2 activity under the postentry treatment (SARS-CoV-2 [1])	inhibition of Furin (Furin)	EC50 [2] [µM]	inhibition of TMPRSS2 (TMPRSS2)	CC50 at 3 days [3] [µM]	inhibition of Cathepsin L (Cathepsin L)	EC50 (SARS-CoV-2 [4]) [µM]	CC50 (VeroE6 host cells) [µM]
O=C(c1ccccc1)[C@H]1[C@@H]2c3ccccc3C=CN2[C@@H](C(=O)c2ccccc2)[C@@H]2c3ccccc3C=CN12 [Compound 50]	32.7 ± 8.9	not under the postentry treatment	no inhibition	26.5 ± 6.9	no inhibition	> 100	no inhibition	–	–
O=C(c1ccc(Cl)cc1)[C@H]1[C@@H]2c3ccccc3C=CN2[C@@H](C(=O)c2ccc(Cl)cc2)[C@@H]2c3ccccc3C=CN12 [Compound 96]	10.4 ± 2.1	not under the postentry treatment	no inhibition	17 ± 3.7	no inhibition	> 100	no inhibition	–	–
berbamine hydrochloride	–	–	–	–	–	–	–	1.73	66.9
